This is an account of results in ChEMBL document CHEMBL1201862, “PubChem BioAssay data set” (2004).

Test systems include SR; COLO 205; SK-MEL-28; HOP-62; K562; HCT-15; MDA-MB-435; IGROV-1; ACHN; NCI-H226; LOX IMVI; OVCAR-3; BT-549; NCI-H23; RPMI-8226; A549; HT-29; U-251; M14; SK-OV-3.
Assay in all cases: NCI anticancer screen, dose series, 48 h

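A five-concentration, 48-hour dose response in 96-well plates underlies each endpoint, interpolated linearly between surrounding concentrations. GI50: concentration for 50% inhibition of growth.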 Active and inactive are the calls of the source. Cut-off read from the data, not from the text of the source: active = GI50 up to about 1.1 µM and inactive = higher. Bounds are passed on as bounds.

Turning to `CC(C)(CO)CNc1nc(N)nc(Cl)c1/C=N/O`, the GI50 with SR was 24.1 µM (inactive); in the assay on COLO 205, 62.7 µM (inactive); in the assay on SK-MEL-28, 48.4 µM (inactive); in the assay with HOP-62, 30.9 µM (inactive); in the assay on K562, 13.9 µM (inactive); in the assay with HCT-15, 61.7 µM. The GI50 was 43.9 µM (inactive) with MDA-MB-435; 13 µM (inactive) in the assay on IGROV-1; 28.6 µM (inactive) with ACHN; 22.6 µM (inactive) in the assay on NCI-H226; 12.1 µM (inactive) with LOX IMVI; 23 µM (inactive) with OVCAR-3. The GI50 in the assay with BT-549 was 23.6 µM (inactive); in the assay with NCI-H23, 3.45 µM (inactive); in the assay on RPMI-8226 it was 15.2 µM (inactive); in the assay with A549 it was 16.9 µM (inactive); in the assay on HT-29 it was 42.1 µM (inactive); with U-251 it was 48.6 µM (inactive).

Turning to `O=C(c1cccc(F)c1F)N1CCc2c([nH]c3ccccc23)C1c1ccc2c(c1)OCO2` (configuration not stated), the GI50 with SR is 3.61 µM (inactive); with M14, 3.85 µM (inactive); in the assay with SK-OV-3, 3.61 µM (inactive); in the assay with COLO 205, 3.59 µM (inactive); with SK-MEL-28, 32.1 µM (inactive); with HOP-62 it was 0.337 µM (active). The GI50 in the assay on K562 was 4.22 µM (inactive); with HCT-15 it was 3.73 µM; in the assay with MDA-MB-435, 2.23 µM (inactive); with IGROV-1, 16.2 µM (inactive); in the assay with ACHN, 18.8 µM (inactive); in the assay on LOX IMVI, 20.2 µM (inactive). For the same molecule, the GI50 in the assay on OVCAR-3 was 1.64 µM (inactive); with BT-549 it was 40.3 µM (inactive); in the assay with NCI-H23 it was 11.7 µM (inactive); with RPMI-8226, 8.2 µM (inactive); in the assay on A549, 7.08 µM (inactive); with HT-29 it was 8.32 µM (inactive). Moreover, the GI50 with U-251 is 11.1 µM (inactive).

Regarding `CNC(=S)N/N=C(\C)c1cc(OC)ccc1O`, the GI50 with SR was 43.5 µM (inactive); with M14, > 92.5 µM (inactive); with SK-OV-3 it was > 100 µM (inactive); in the assay on COLO 205, 0.447 µM (active); with SK-MEL-28, > 100 µM (inactive); in the assay on HOP-62, > 100 µM (inactive). The GI50 with K562 was 3.22 µM (inactive); in the assay on HCT-15, 63.1 µM; with MDA-MB-435, > 78.9 µM (inactive); in the assay with IGROV-1 it was > 64.9 µM (inactive); with ACHN, > 100 µM (inactive); in the assay on LOX IMVI it was > 100 µM (inactive). Besides, the GI50 in the assay on OVCAR-3 is > 100 µM (inactive); in the assay with BT-549, > 100 µM (inactive); in the assay with NCI-H23, > 100 µM (inactive); with RPMI-8226, > 31.3 µM (inactive); in the assay with A549, > 100 µM (inactive); in the assay with HT-29 it was 0.951 µM (active). The GI50 in the assay on U-251 is > 100 µM (inactive).

Consider `COc1cc(C[C@H]2c3cc(OC)c(OC)cc3CCN2C)c(Oc2cc3c(cc2OC)-c2c(OC)c(OC)cc4c2[C@H](C3)N(C)CC4)cc1OC` [THALICARPINE], for which the GI50 with SR was 5.08 µM (inactive); in the assay with M14 it was 1.52 µM (inactive); in the assay with COLO 205 it was 5.75 µM (inactive); in the assay on SK-MEL-28 it was 4.02 µM (inactive); in the assay with HOP-62, 10.6 µM (inactive); with K562, 4.88 µM (inactive). In addition, the GI50 is 5.04 µM in the assay on HCT-15; 5.16 µM (inactive) with MDA-MB-435; 10.8 µM (inactive) in the assay with IGROV-1; 12.9 µM (inactive) with ACHN; 6.58 µM (inactive) with NCI-H226; 7.21 µM (inactive) with LOX IMVI. Further, the GI50 is 10.5 µM (inactive) in the assay with OVCAR-3; 6.52 µM (inactive) in the assay with BT-549; 12.4 µM (inactive) in the assay with NCI-H23; 8.04 µM (inactive) in the assay on RPMI-8226; 11.9 µM (inactive) in the assay on A549; 5.66 µM (inactive) in the assay with HT-29. In the assay on U-251, the GI50 is 3.9 µM (inactive).

As to `Cc1cccc(Nc2nn3c(=O)c4c5c(sc4nc3s2)CCCC5)c1`, the GI50 was 25.4 µM (inactive) with SR; 3.89 µM (inactive) in the assay with M14; 45.8 µM (inactive) with SK-OV-3; 3.69 µM (inactive) in the assay on COLO 205; > 100 µM (inactive) in the assay on SK-MEL-28; 28.4 µM (inactive) with HOP-62. Also, the GI50 is 5.09 µM (inactive) in the assay on K562; 6.41 µM with HCT-15; 7.41 µM (inactive) in the assay on MDA-MB-435; 43.4 µM (inactive) with IGROV-1; 7.71 µM (inactive) with ACHN; > 100 µM (inactive) in the assay on NCI-H226. For the same molecule, the GI50 with LOX IMVI is 3.33 µM (inactive); with OVCAR-3 it was 25.9 µM (inactive); in the assay on BT-549 it was 25.8 µM (inactive); in the assay with NCI-H23, 14 µM (inactive); in the assay with A549, 14.8 µM (inactive); in the assay on HT-29, 10.4 µM (inactive). Further, the GI50 in the assay on U-251 was 46.2 µM (inactive).

For `Cc1nc2cn3c(c2c(=O)[nH]1)CCCCC3`, the GI50 with SR, in the assay with M14, in the assay on SK-OV-3, in the assay on COLO 205, in the assay on SK-MEL-28 and in the assay on HOP-62 was > 100 µM (inactive) each time. Besides, the GI50 in the assay with K562 is > 100 µM (inactive); in the assay with HCT-15 it was above 100 µM; in the assay on MDA-MB-435 it was > 100 µM (inactive); in the assay with IGROV-1, > 100 µM (inactive); with ACHN it was > 100 µM (inactive); in the assay on NCI-H226 it was > 100 µM (inactive). Besides, the GI50 in the assay on LOX IMVI, with BT-549, in the assay with NCI-H23, in the assay on RPMI-8226, in the assay with HT-29 and with U-251 was > 100 µM (inactive) in each case.

For `OC[C@H]1O[C@@H]2O[C@@](COCc3ccccc3)([C@H](OCc3ccccc3)[C@H]2O)[C@@H]1OCc1ccccc1`, the GI50 in the assay with SR is 2.33 µM (inactive); with M14, 17.6 µM (inactive); in the assay with SK-OV-3, 14.8 µM (inactive); with COLO 205 it was 17.4 µM (inactive); in the assay on HOP-62 it was 18.1 µM (inactive); in the assay with K562 it was 7.76 µM (inactive). In addition, the GI50 is 18.8 µM with HCT-15; 17.3 µM (inactive) with MDA-MB-435; 13.9 µM (inactive) with IGROV-1; 17.3 µM (inactive) in the assay with ACHN; 16.7 µM (inactive) with LOX IMVI; 14.6 µM (inactive) in the assay with OVCAR-3. Also, the GI50 in the assay on BT-549 is 22.2 µM (inactive); in the assay on NCI-H23, 16.6 µM (inactive); with RPMI-8226, 13.7 µM (inactive); with A549, 14.7 µM (inactive); with HT-29 it was 4.81 µM (inactive); with U-251 it was 15.7 µM (inactive).

Take `COc1ccc(-c2ncn(C[Si](C)(C)C)c2-c2ccc(OC)cc2)cc1`: the GI50 is 6.19 µM (inactive) in the assay on SR; 3.59 µM (inactive) in the assay on M14; 20 µM (inactive) in the assay with SK-OV-3; 2.54 µM (inactive) with COLO 205; 2.33 µM (inactive) with SK-MEL-28; 12.6 µM (inactive) in the assay with HOP-62. Also, the GI50 was 0.472 µM (active) in the assay with K562; 4.51 µM in the assay with HCT-15; 3.73 µM (inactive) in the assay with MDA-MB-435; 6.21 µM (inactive) in the assay on IGROV-1; 7.55 µM (inactive) with ACHN; 4.8 µM (inactive) in the assay with NCI-H226. Besides, the GI50 in the assay on LOX IMVI is 4.89 µM (inactive); with BT-549, 22.4 µM (inactive); in the assay on NCI-H23, 3.87 µM (inactive); with RPMI-8226 it was 1.69 µM (inactive); in the assay with A549 it was 4.31 µM (inactive); with HT-29, 2.84 µM (inactive). Also, in the assay with U-251, the GI50 is 6.9 µM (inactive).

In the case of `O=C(CN1CCCCC1)Nc1ccc2c(c1)C1Oc3ccccc3CC1CO2` (configuration not stated), the GI50 in the assay on SR was 23.2 µM (inactive); in the assay on M14, 18.2 µM (inactive); in the assay on SK-OV-3, 32.8 µM (inactive); in the assay on COLO 205 it was 13.3 µM (inactive); in the assay on HOP-62 it was 16.9 µM (inactive); in the assay on K562, 58.9 µM (inactive). The GI50 was 15.5 µM in the assay on HCT-15; 18.7 µM (inactive) in the assay on MDA-MB-435; 21.1 µM (inactive) in the assay on IGROV-1; 21 µM (inactive) with NCI-H226; 16.4 µM (inactive) in the assay on LOX IMVI; 27.8 µM (inactive) with OVCAR-3. Besides, the GI50 in the assay on BT-549 was 19.9 µM (inactive); with NCI-H23, 24.9 µM (inactive); in the assay on RPMI-8226, 28.8 µM (inactive); in the assay on A549, 32.5 µM (inactive); in the assay on HT-29, 14.5 µM (inactive); with U-251, 18 µM (inactive).

Take `CCCCc1ccc(Nc2nc(Cl)c3ncn(C4CC(Oc5ccc(C)cc5)C(COc5ccc(C)cc5)O4)c3n2)cc1` (configuration not stated): the GI50 in the assay on SR was > 100 µM (inactive); with M14 it was > 100 µM (inactive); with SK-OV-3, > 100 µM (inactive); in the assay on COLO 205 it was > 100 µM (inactive); with HOP-62, 75.2 µM (inactive); in the assay on K562, > 100 µM (inactive). Moreover, the GI50 in the assay with HCT-15 was above 100 µM; in the assay on MDA-MB-435 it was > 100 µM (inactive); in the assay with IGROV-1, > 100 µM (inactive); in the assay with ACHN, > 100 µM (inactive); with NCI-H226 it was > 100 µM (inactive); in the assay with LOX IMVI it was > 100 µM (inactive). The GI50 in the assay on OVCAR-3, with BT-549, in the assay on NCI-H23, with RPMI-8226, in the assay with A549 and with HT-29 was > 100 µM (inactive) in each case.

Consider `Cc1cc(NCc2ccccc2)c2ccccc2[n+]1CCCCCCCCCC[n+]1c(C)cc(NCc2ccccc2)c2ccccc21.[O-][Cl+3]([O-])([O-])[O-].[O-][Cl+3]([O-])([O-])[O-]`, for which the GI50 was 0.223 µM (active) with SR; 1.21 µM (inactive) with M14; 0.365 µM (active) with SK-OV-3; 0.236 µM (active) in the assay on COLO 205; 0.71 µM (active) in the assay with SK-MEL-28; 0.271 µM (active) in the assay with K562. Also, the GI50 was 1.89 µM with HCT-15; 0.39 µM (active) in the assay on MDA-MB-435; 2.98 µM (inactive) with IGROV-1; 0.565 µM (active) in the assay on ACHN; 0.238 µM (active) with LOX IMVI; 0.569 µM (active) with BT-549. Besides, the GI50 was 0.247 µM (active) in the assay with NCI-H23; 0.124 µM (active) in the assay with RPMI-8226; 0.394 µM (active) in the assay on A549; 0.345 µM (active) with HT-29; 0.0964 µM (active) with U-251.
